Experimental data reported in US10520514B2, “Method for monitoring post-translational modification of protein” (KOREA INSTITUTE OF SCIENCE AND TECHNOLOGY, priority 2017, dated 2019).

How the values were obtained:
Assay type in all cases: biochemical
tau protein = assay: Ratio of impedance change due to phosphorylated tau (P) and O-glycosylated tau (O); details: 100 uM Thiamet G; tau protein 0.5 pg/ml
Protocol: (§1) The samples thus obtained were measured for impedance using a biosensor array (10×10 or 20×20) with an electrode interval of 0.7 μm. […] In addition, impedance change rate is a value (%) obtained by dividing a difference between the impedance Zneg of Neg and the impedance BAT or BAT2 of divided by the impedance Zneg of Neg and multiplied by 100. Impedance change rate difference is defined as a value obtained by subtracting the impedance change rate of BAT from the impedance change rate of BAT2.

O-glycosylated tau = assay: Nanogap biosensor impedance of microbeads bound to tau protein, reacted with O-GlcNAc (CTD110.6) antibody
Protocol: (§2) A tosylate-treated magnetic bead (Thermo Fisher, Dynabead M-280, diameter 2.8 μm, 14203) and a tau protein binding antibody (abcam, Anti-Tau (Phosphor S262) antibody, ab64193, 50 μl/250 μl) are inserted in a 0.1 M PBS buffer and placed in a 37° C. incubator, and incubated on a roll mixer for 24 hours.
(§3) Next, the magnetic bead bound to the tau protein binding antibody are washed with 0.4% Block ACE (AbD serotec, USA) and blocked with 0.2 M tris buffer. 30 mg/mL of the microbead solution was stored in PBST (Phosphate Buffered Saline with Tween-20, 0.01% Tween-20) containing 0.4% Block Ace.
(§4) The tau protein at a concentration of 5250 ng/mL was diluted 1/10 in various concentrations (0.5 fg/mL to 50 pg/mL) using 0.1% PBST. Tau protein was treated with Thiamet G, an O-glycosylation drug, if necessary.
(§5) The microbead bound to the tau protein binding antibody were diluted to 300 μl/ml using 0.1% PBST, and the tau protein (diluent) and the microbead (diluent) were mixed at a concentration of 1:2 and reacted in a refrigerator for 22 hours.
(§6) Next, the microbead bound to the tau protein is washed twice with 0.1% PBST and washed twice with PBS (Phosphate Buffered Saline). Thereafter, it is diluted to a bead concentration of 60 μl/ml using PBS.
(§7) A microbead (300 μl/ml) bound to tau protein were prepared in the same manner as in Synthesis Example 1.
The microbead is mixed with 10.4 ng of an antibody capable of binding O-glycosylated proteins (Cell signaling, O-GlcNAc (CTD110.6) Mouse mAB, #9875) and reacted in a refrigerator for 22 hours.
The microbead bound to the O-glycosylated tau-binding antibody is washed twice with 0.1% PBST, washed twice with PBS, and diluted to a bead concentration of 60 μl/ml using PBS.
as §1

phosphorylated tau = assay: Nanogap biosensor impedance of microbeads bound to tau protein, reacted with AT8 antibody; details: 100 uM Thiamet G, tau protein 0.5 pg/ml
Protocol: as §2, §3, §4, §5, §6, §7
The microbead is mixed with 10 ng of an antibody capable of binding to phosphorylated tau protein (Thermo Fisher, Phospho-Tau (Ser202, Thr205) Antibody (AT8), MN1020) and reacted in a refrigerator for 22 hours.
The microbead bound to the phosphorylated tau-binding antibody is washed twice with 0.1% PBST, washed twice with PBS, and diluted to a bead concentration of 60 μl/ml using PBS.
as §1, with “Impedance change rate difference is defined as a value obtained by subtracting the impedance change rate of BAT from the impedance change rate of BAT2.” left out

[1] = 10 uM Thiamet G, tau protein 0.5 pg/ml, O-GlcNAc
[2] = 30 uM Thiamet G, tau protein 0.5 pg/ml, O-GlcNAc
[3] = 100 uM Thiamet G, tau protein 0.5 pg/ml, O-GlcNAc

CCN=C1N[C@@H]2[C@@H](O)[C@H](O)[C@@H](CO)O[C@@H]2S1 [Thiamet G]
P/O (tau protein): 0.111
BAT-BAT2 (O-glycosylated tau; [1]): 4.3 MΩ
Impedance change rate difference (O-glycosylated tau; [1]): 1.62%
BAT-BAT2 (O-glycosylated tau; [2]): 11.6 MΩ
Impedance change rate difference (O-glycosylated tau; [2]): 4.39%
BAT-BAT2 (O-glycosylated tau; [3]): 30.5 MΩ
Impedance change rate difference (O-glycosylated tau; [3]): 11.54%
O ((BAT-BAT2)/Neg) (O-glycosylated tau; [3]): 0.1154
Impedance change rate difference (O-glycosylated tau; 100 uM Thiamet G, tau protein 0.5 fg/ml): 7.5%
Impedance change rate difference (O-glycosylated tau; 100 uM Thiamet G, tau protein 5.2 fg/ml): 20.4%
Impedance change rate difference (O-glycosylated tau; 100 uM Thiamet G, tau protein 52.4 fg/ml): 28.9%
Impedance change rate difference (O-glycosylated tau; 100 uM Thiamet G, tau protein 524 fg/ml): 32.8%
Impedance change rate difference for the microbead combined with O-glycosylated antibody (O-glycosylated tau; when the concentration of Thiamet G was increased (Tables 1-1 and 1-2)): greatly increased
BAT-BAT2 (phosphorylated tau): 0.59 MΩ
Impedance change rate difference (phosphorylated tau): 1.28%
P ((BAT2-BAT)/Neg) (phosphorylated tau): 0.0128
